Measured values from patent US11214803B2, “Modulators of YAP1 expression” (Ionis Pharmaceuticals, Inc., priority 2019, dated 2022).
Strand notation (5' to 3'): a small letter for the sugar, then the base; units joined by * are phosphorothioate-linked, units joined directly phosphodiester-linked; [ ] holds rarer units or linkages, { } end groups; capitals alone tell only the bases. e = 2'-O-(2-methoxyethyl) (MOE); k = constrained ethyl (cEt); [5mC] = 5-methylcytosine; d = 2'-deoxy (DNA); m = 2'-O-methyl

Columns and labels:
Assay type in all cases: cell-based
Yap1 mRNA [1] = experiment: Antisense inhibition of human Yap1 in SNU-449 cells by modified oligonucleotides, single dose (Example 5, RTS36584)
Method: Modified oligonucleotides with additional chemistry modifications were designed to target a Yap1 nucleic acid and were tested for their effect on Yap1 mRNA level in SNU-449 cells. The modified oligonucleotides were tested in a series of experiments that had similar culture conditions. Cultured SNU-449 cells at a density of 10,000 cells per well were treated using free uptake with 2,000 nM of modified oligonucleotide. After a treatment period of approximately 48 hours, RNA was isolated from the cells and Yap1 mRNA levels were measured by quantitative real-time RTPCR. Human primer probe set RTS36584 was used to measure mRNA levels. Yap1 mRNA levels were normalized to total RNA content, as measured by RIBOGREEN®. Results are presented in the tables below as percent control of the amount of Yap1 mRNA relative to untreated control cells (% UTC). The modified oligonucleotides with percent control values marked with an asterisk (*) target the amplicon region of the primer probe set. Additional assays may be used to measure the potency and efficacy of the modified oligonucleotides targeting the amplicon region.
Several different chemistry modifications were tested, which are specified in the Chemistry Notation column of the tables below, wherein the notation “d” refers to a 2′-deoxyribose sugar, the notation “s” refers to a phosphorothioate (P═S) internucleoside linkage, the notation “k” refers to a cEt modified sugar, the notation “y” refers to a 2′-O-methyl ribose sugar, the notation “e” refers to a MOE modified sugar, and the notation “^mC” refers to a 5-methylcytosine.
“Start site” indicates the 5′-most nucleoside to which the gapmer is targeted in the human gene sequence. “Stop site” indicates the 3′-most nucleoside to which the gapmer is targeted human gene sequence. […] Activity of the modified oligonucleotide may be defined in a different experiment.

Yap1 mRNA [2] = experiment: Antisense inhibition of human Yap1 in A-431 cells by cEt gapmers, single dose (Example 2, RTS4814); conditions: 3-10-3 cEt gapmers targeting SEQ ID NO.: 1, and 2
Procedure, shortened: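 Free uptake, 2,000 nM, ~48 h, A-431 at 5,000 cells/well. Readout: RT-qPCR (RTS4814), RIBOGREEN-normalized, % UTC. 16-mer 3-10-3 cEt gapmers, full PS backbone, all C as 5-methylcytosine.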

Yap1 mRNA [3] = experiment: Dose-dependent inhibition of human Yap1 in A-431 cells (Example 8, 10,000 cells per well, RTS4814); conditions: free uptake, approximately 48 hours, RTS4814; for Yap1 mRNA, % UTC: A-431 cells, 10,000 cells per well; for IC50: A-431 cells, linear regression on log/linear plot
Procedure, shortened: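 Yap1 mRNA, normalized to RIBOGREEN total RNA and expressed as % untreated control, was read with RTS4814 about 48 h after free-uptake oligonucleotide treatment of A-431 cells at 10,000 cells/well. IC50 derived by linear regression of log/linear data.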

[4] = Table 50, Yap1 mRNA remaining as percent of untreated control (UT), SNU-449 cells, single dose
[5] = Table 42 (separate experiment), SNU-449 cells, 10,000 cells per well, free uptake, 2,000 nM modified oligonucleotide, approximately 48 hours, RTS36584, normalized to RIBOGREEN, Yap1 mRNA relative to untreated control cells
[6] = Table 45, Yap1 mRNA as percent of untreated control, SNU-449 cells, single dose
[7] = Table 40 (separate experiment), SNU-449 cells, 10,000 cells per well, free uptake, 2,000 nM oligonucleotide, approx. 48 hours, RTS36584, normalized to RIBOGREEN, Yap1 mRNA relative to untreated control
[8] = Table 43 experiment, SNU-449 cells, 10,000 cells per well, free uptake, 2,000 nM, approximately 48 hours, RTS36584, Yap1 mRNA normalized to RIBOGREEN, relative to untreated control cells
[9] = Table 46, Yap1 mRNA as percent of untreated control, SNU-449 cells, single dose
[10] = Table 32, Yap1 mRNA, percent of untreated control
[11] = Yap1 mRNA as percent of untreated control, A-431 cells, Table 31
[12] = Yap1 mRNA as percent of untreated control, A-431 cells, Table 30

Substance | Yap1 mRNA, % UTC (Yap1 mRNA [3]; 31.3 nM) | Yap1 mRNA, % UTC (Yap1 mRNA [3]; 125.0 nM) | Yap1 mRNA, % UTC (Yap1 mRNA [3]; 500.0 nM) | Yap1 mRNA, % UTC (Yap1 mRNA [3]; 2000.00 nM) | IC50 (Yap1 mRNA [3]) | also measured
1198611 (antisense kA*kG*kT*dG*dT*dA*dT*dG*dT*d[5mC]*dA*dG*kA*kA*kG*eA) [Compound 1198611] | – | – | – | – | – | YAP1 (% UT) (Yap1 mRNA [1]; [4]): 7 % UT
1198701 (kT*kT*dA*dA*dA*dG*dT*dG*dT*dA*dT*dG*kT*e[5mC]*kA*eG; antisense) [Compound 1198701] | – | – | – | – | – | YAP1 (% UTC) (Yap1 mRNA [1]; [5]): 46 % UTC
1198533 (kT*kA*dA*dG*dG*dT*dT*dT*d[5mC]*d[5mC]*d[5mC]*eA*kG*eA*kT*eT; antisense) [Compound 1198533] | – | – | – | – | – | YAP1 (% UTC) (Yap1 mRNA [1]; Table 44 experiment, SNU-449 cells, 10,000 cells per well, free uptake, 2,000 nM, approximately 48 hours, RTS36584, Yap1 mRNA normalized to RIBOGREEN, relative to untreated control cells): 35 % UTC
1095491 (antisense kA*k[5mC]*dT*dG*dA*dG*dG*dT*dA*dT*dA*kA*d[5mC]*kT*dG*kG) [Compound 1095491] | – | – | – | – | – | YAP1 (% UTC) (Yap1 mRNA [1]; [6]): 65 % UTC
1198754 (kG*e[5mC]*kT*dT*dT*dG*dG*dA*dA*dG*dA*dT*e[5mC]*eT*kG*kA; antisense) [Compound 1198754] | – | – | – | – | – | YAP1 (% UTC) (Yap1 mRNA [1]; [7]): 23 % UTC
1198277 (kA*kA*dG*dT*dA*dA*dG*dG*dT*dT*dT*e[5mC]*e[5mC]*e[5mC]*kA*kG; antisense) [Compound 1198277] | – | – | – | – | – | YAP1 (% UTC) (Yap1 mRNA [1]; [8]): 32 % UTC
1197214 (antisense kA*kG*kT*dG*dT*dA*dT*dG*dT*d[5mC]*dA*dG*dA*kA*kG*kA) [Compound 1197214] | – | – | – | – | – | YAP1 (% UT) (Yap1 mRNA [1]; Table 48, Yap1 mRNA level relative to untreated control, modified oligonucleotides targeting SEQ ID NO.: 1 and 2): 5 % UT
1198590 (antisense kT*k[5mC]*kA*dG*dA*dT*dT*dT*dA*dG*dG*dA*kT*kG*k[5mC]*eA) [Compound 1198590] | – | – | – | – | – | YAP1 (% UT) (Yap1 mRNA [1]; [4]): 46 % UT
1197292 (kA*k[5mC]*kT*dT*mU*dT*dA*d[5mC]*dA*dT*dT*dA*dG*kG*kA*kA; antisense) [Compound 1197292] | – | – | – | – | – | YAP1 (% UT) (Yap1 mRNA [1]; [4]): 84 % UT
1197303 (k[5mC]*kT*kT*dA*mU*dA*dT*dG*dG*dT*dT*dT*dT*kG*kT*kG; antisense) [Compound 1197303] | – | – | – | – | – | YAP1 (% UT) (Yap1 mRNA [1]; Table 51, Yap1 mRNA remaining as percent of untreated control (UT), SNU-449 cells, single dose): 72 % UT
1198358 (kT*kT*kT*dA*dA*dA*dG*dT*dG*dT*dA*dT*kG*eT*k[5mC]*eA; antisense) [Compound 1198358] | – | – | – | – | – | YAP1 (% UT) (Yap1 mRNA [1]; Table 49, Yap1 mRNA level relative to untreated control, modified oligonucleotides targeting SEQ ID NO.: 1 and 2): 15 % UT
1095426 (antisense k[5mC]*kT*dG*dA*dG*dG*dT*dA*dT*dA*dA*k[5mC]*eT*kG*eG*kG) [Compound 1095426] | – | – | – | – | – | YAP1 (% UT) (Yap1 mRNA [1]; [9]): 54 % UT
1198748 (kA*eA*kG*d[5mC]*dA*d[5mC]*dT*dT*dT*dT*dA*d[5mC]*eA*eT*kT*kA; antisense) [Compound 1198748] | – | – | – | – | – | YAP1 (% UTC) (Yap1 mRNA [1]; [7]): 81 % UTC
1198205 (kA*kT*dG*dG*dA*dA*dA*dT*dT*dG*dT*e[5mC]*eT*e[5mC]*kA*kT; antisense) [Compound 1198205] | – | – | – | – | – | YAP1 (% UTC) (Yap1 mRNA [1]; [5]): 64 % UTC
1198951 (kA*kA*dT*dA*dT*dT*dG*d[5mC]*dA*dA*dT*k[5mC]*dT*kG*dT*k[5mC]; antisense) [Compound 1198951] | – | – | – | – | – | YAP1 (% UTC) (Yap1 mRNA [1]; [6]): 81 % UTC
1198244 (kA*kG*dA*dT*dT*dT*dA*dG*dG*dA*dT*eG*e[5mC]*eA*kT*kG; antisense) [Compound 1198244] | – | – | – | – | – | YAP1 (% UTC) (Yap1 mRNA [1]; [8]): 24 % UTC
1198420 (kA*dT*dA*dT*dG*dG*dT*dT*dT*dT*dG*kT*eG*kT*eG*kT; antisense) [Compound 1198420] | – | – | – | – | – | YAP1 (% UTC) (Yap1 mRNA [1]; Table 39, SNU-449 cells, 10,000 cells per well, free uptake, 2,000 nM oligonucleotide, approx. 48 hours, RTS36584, normalized to RIBOGREEN, Yap1 mRNA relative to untreated control): 41 % UTC
1198207 (kA*kG*dT*dA*dT*dG*dT*dG*dG*d[5mC]*dA*eA*eT*eA*kA*kT; antisense) [Compound 1198207] | – | – | – | – | – | YAP1 (% UTC) (Yap1 mRNA [1]; [5]): 91 % UTC
1198857 (kT*k[5mC]*dT*dT*dA*dT*dA*dT*dG*dG*dT*kT*eT*kT*eG*kT; antisense) [Compound 1198857] | – | – | – | – | – | YAP1 (% UT) (Yap1 mRNA [1]; [9]): 19 % UT
1075699 (kG*kA*kT*dT*dT*dA*dT*dA*d[5mC]*dT*d[5mC]*dA*dG*kG*kT*kT; antisense) [compound 1075699] | 26 % UTC | 6 % UTC | 3 % UTC | 2 % UTC | < 20 nM | YAP1 (% UTC) (Yap1 mRNA [2]; Table 33, Yap1 mRNA, percent of untreated control): 4 % UTC
1076466 (kA*kT*kT*dT*dA*dG*dA*dG*d[5mC]*dT*dT*dA*dA*kG*kG*kA; antisense) [compound 1076466] | 43 % UTC | 18 % UTC | 8 % UTC | 6 % UTC | < 20 nM | YAP1 (% UTC) (Yap1 mRNA [2]; [10]): 5 % UTC
1074290 (antisense k[5mC]*kT*kG*dA*d[5mC]*dT*dG*dA*dT*dT*d[5mC]*dT*d[5mC]*kT*kG*kG) [compound 1074290] | 49 % UTC | 17 % UTC | 9 % UTC | 7 % UTC | < 20 nM | YAP1 (% UTC) (Yap1 mRNA [2]; [10]): 5 % UTC
1074801 (kA*k[5mC]*kA*dA*dA*dT*dA*dG*dT*dG*d[5mC]*dT*dT*kT*kG*kG; antisense) [compound 1074801] | 76 % UTC | 41 % UTC | 19 % UTC | 12 % UTC | 100 nM | YAP1 (% UTC) (Yap1 mRNA [2]; [11]): 8 % UTC
1074448 (kT*kA*kA*dT*dG*dA*dT*dA*dG*d[5mC]*dA*d[5mC]*dT*kA*kG*kG; antisense) [compound 1074448] | 54 % UTC | 13 % UTC | 4 % UTC | 3 % UTC | < 20 nM | YAP1 (% UTC) (Yap1 mRNA [2]; [12]): 3 % UTC
1074800 (k[5mC]*kA*kA*dA*dT*dA*dG*dT*dG*d[5mC]*dT*dT*dT*kG*kG*kA; antisense) [compound 1074800] | 48 % UTC | 21 % UTC | 10 % UTC | 7 % UTC | < 20 nM | YAP1 (% UTC) (Yap1 mRNA [2]; [12]): 6 % UTC
1074737 (kT*kT*k[5mC]*dA*dG*dG*dT*d[5mC]*dA*dG*dT*dA*d[5mC]*kA*kG*kA; antisense) [compound 1074737] | 50 % UTC | 21 % UTC | 8 % UTC | 6 % UTC | < 20 nM | YAP1 (% UTC) (Yap1 mRNA [2]; [11]): 7 % UTC
1074576 (DNA kA*kT*kG*d[5mC]*dA*d[5mC]*dA*dT*dT*dA*dT*dG*dA*kA*k[5mC]*k[5mC]) [compound 1074576] | 69 % UTC | 41 % UTC | 14 % UTC | 9 % UTC | 100 nM | YAP1 (% UTC) (Yap1 mRNA [2]; [12]): 7 % UTC
1074418 (kT*kT*k[5mC]*dT*dT*dT*dA*dG*dA*dG*d[5mC]*d[5mC]*dA*kA*k[5mC]*kT; antisense) [compound 1074418] | 55 % UTC | 26 % UTC | 9 % UTC | 4 % UTC | < 20 nM | YAP1 (% UTC) (Yap1 mRNA [2]; [10]): 4 % UTC
